# Assay results from patent US20230028880A1, “CD38-BINDING AGENTS AND USES THEREOF” (Biohaven Therapeutics Ltd., priority 2019, published 2023).
# “And” between values parts separate entries of the source, which are not always exact repeats. Equal entries are not always repeated. “Also recorded” adds a separate entry of the source.
# Assays:
# Assay type in all cases: cell-based
# [1] = tested on: Effector cells (ADCC reporter cells) with Daudi cells; test: ADCC reporter assay: Daudi cells, IVIG and ADCC reporter effector cells (luciferase, RLU); settings: IVIG; for Luminescence, ADCC reporter assay: duplicate columns
# Procedure, shortened: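 Daudi targets (5,000/well) were combined with compound (8 concentrations, ½-log steps), human IVIG added at 40 ug/mL, and 37,500 ADCC reporter effector cells per well. After 18 h at 37° C and equilibration to 25° C, luciferase luminescence was read.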
# [2] = tested on: NK cells (CIML and non-CIML); test: CIML NK cell fratricide assay
# Experimental: PBMC isolation: Leukopheresis product from a donor with body mass index (BMI) between 19-25, under 50 years old, not on immuno-suppressive drugs for at least 2 weeks with an estimated PBMC cell count of >10^10 was obtained from Key Biologics (subject ID 20982200) and transported at ambient temperature. Leukopheresis bag was wiped down with 70% EtOH, a small slit was made and contents were pipetted off into tubes. Leukopak contents were diluted 1:1 with PBS without Ca++/Mg++ and 20 ml of this mixture was layered on top of 25 mL of Ficoll. Tubes were then centrifuged at 400 g for 30 minutes without brakes. PBMCs were harvested from the interface into separate tubes, and tubes were filled to 50 mL with PBS. Cells were centrifuged for 10 min at 120 g to get rid of platelets. Supernatant was poured off and cells were re-suspended in RPMI 10% FBS at a concentration of 7-10×10^6 cells/ml. Cells were cultured overnight at 37 C in a 5% CO2 atmosphere until NK cell isolation.
# NK cell isolation: PBMC were centrifuged at 400 g for 10 min and re-suspended in EasySep buffer. NK cells were isolated using NK cell isolation kits from […] Technologies according to kit's manufacturers' instructions. NK cell purity and phenotype was assessed by trypan Blue and flow cytometry using the following antibody cocktail: anti-CD56PE, CD3 APC, and viability was determined using staining with Trypan Blue exclusion dye, and by flow cytometry using Near Infra-Red Fixable viability dye (Thermo Fisher).
# CIML NK cell generation: Isolated NK cells were re-suspended at 2×10^6 cells/ml in XVIVO 10% Human Serum and the following concentrations IL-15 (50 ng/ml), IL-12 (10 ng/ml), IL-18 (50 ng/ml) for 12 to 18 hrs. Cells were harvested and tested for purity and viability by Trypan Blue staining and by Flow Cytometry using Near Infra-Red Fixable viability dye (Thermo Fisher), CD3 APC (Biolegend) and CD56 PE (Biolegend).
# The stock was then serially diluted in 100% DMSO to achieve 1000× concentrations to be used in the experiment. The 100% DMSO compound stock was then added to a tube and media was added to a volume of 1000 ul per 1 ul of compound and vortexed for 1 minute to ensure a homogenous mixture.
# Similarly, NK cell pellets were re-suspended in Daratumumab control antibody solutions (a range of 3 ug/ml to 0.01 ug/ml in PBS 5% HSA). Resulting NK cell suspensions were aliquoted at 55 ul/well of a 96 wellv-bottom plate and were incubated for 2 hrs at 37° C. in a 5% CO2 atmosphere.
# SUDHL-4 cells = test: CIML NK cell SUDHL-4 cell ADCC assay
# Experimental: CIML NK cell SUDHL-4 cell ADCC assay: SUDHL-4 cells were labelled with CFSE and re-suspended in XVIVO15 media containing 20% Human serum. Cells were aliquoted at 10,000 cells/well, 18 ul/well of 96 well V-bottom plates. NK cells (in PBS 5% HSA) were added at a 9:1 ratio (90,000 NK cell per well) in an equal volume (18 ul per well). Co-cultures were incubated overnight at 37° C. in a 5% CO2 atmosphere. Next day, cells were washed, and stained with the following reagents: Near Infra-Red Fixable viability dye (Thermo Fisher), CD3 FITC (Biolegend) and CD56 PE (Biolegend). Percentages of Dead SUDHL-4 cells were calculated by gating on CFSE+ cells that are also positive for Near Infrared Live Dead dye.
# Baseline activity was assessed by using NK cells that have not been stimulated with cytokine cocktail (non-CIML NK cells). FIG. 6 represents frequencies of dead SUDHL-4 cells in NK-SUDHL-4 cell co-cultures after 18 hours of incubation.
smiles,measurement,setting,value
CCCCC[C@@H]1NC(=O)[C@H](CCCNC(=N)N)NC(=O)[C@H](C)NC(=O)CSC[C@@H](C(=O)NCCOCCOCCOCCOCCOCCOCCn2nnc3c2CCC2C(CC3)C2COC(=O)N2CCC(C(=O)NCC(=O)N[C@H](CCC(=O)N[C@H](CCC(=O)N[C@H](CCC(=O)O)C(=O)N[C@H](CCC(=O)N[C@H](CCC(=O)NCC(=O)NCC(=O)N[C@@H](CC(=O)O)C(=O)N[C@H]3CSSC[C@@H](C(=O)N[C@H](C(=O)O)[C@@H](C)O)NC(=O)[C@H](Cc4c[nH]c5ccccc45)NC(=O)[C@H](C(C)C)NC(=O)[C@H](CC(C)C)NC(=O)[C@H](CCC(=O)O)NC(=O)CNC(=O)[C@H](CC(C)C)NC(=O)[C@H](Cc4c[nH]cn4)NC(=O)[C@H](Cc4c[nH]c5ccccc45)NC(=O)[C@H](C)NC3=O)C(=O)O)C(=O)O)C(=O)O)C(=O)O)CC2)NC(=O)[C@H](CC(=O)O)NC(=O)[C@H](CCCCC)NC(=O)[C@H](Cc2ccc(-c3ccccc3)cc2)NC(=O)[C@H](CC(C)C)NC(=O)[C@H](C(C)C)NC(=O)CNC(=O)[C@H](CC(=O)O)NC(=O)[C@H](Cc2c[nH]cn2)NC(=O)[C@H](Cc2ccc(O)cc2)NC1=O (stereo partly shown) [I-17],EC50,[1]; ADCC reporter assay,5.9 nM
same,EC70,"[1]; ADCC reporter cells, 18 h, one set of experiment (FIG. 2)",about 2.7 nM
same,"Luminescence, ADCC reporter assay","[1]; compound 0.3 nM, 18 h",26632 RLU and 25947 RLU
same,"Luminescence, ADCC reporter assay","[1]; compound 1 nM, 18 h",32303 RLU and 36226 RLU
same,"Luminescence, ADCC reporter assay","[1]; compound 3 nM, 18 h",50671 RLU and 54979 RLU
same,"Luminescence, ADCC reporter assay","[1]; compound 10 nM, 18 h",63014 RLU and 62702 RLU
same,"Luminescence, ADCC reporter assay","[1]; compound 30 nM, 18 h",69329 RLU and 70980 RLU
same,"Luminescence, ADCC reporter assay","[1]; compound 100 nM, 18 h",70908 RLU and 75233 RLU
same,"Luminescence, ADCC reporter assay","[1]; compound 300 nM, 18 h",69068 RLU and 69848 RLU
same,"Luminescence, ADCC reporter assay","[1]; compound 1000 nM, 18 h",60578 RLU and 59440 RLU
same,NK cell fratricide / toxicity,"[2]; 2 hr incubation, up to the highest doses (FIG. 5)",no apparent NK cell fratricide was detected; also recorded: low toxicity
same,increase in the percentage of dead NK cells,"[2]; CIML NK cells, 2 hours post-incubation, daratumumab 3 ug/ml or 20.1 nM, I-17 +/-IVIG",no increase
same,increase in dead NK cells (I-17 IvIG vs DMSO IVIG control),"[2]; non-CIML NK cells, 2 h, I-17 25 uM with IVIG 500 ug/ml",0.93%
same,increase in dead NK cells over DMSO treated control,"[2]; non-CIML NK cells, 2 h, I-17 at 25 uM vs DMSO control",1.7%
same,increase in killing over background (DMSO-treated control),"SUDHL-4 cells; CIML NK cells in combination with I-17, SUDHL-4 cells, 18 hours",66%
same,killing of SUDHL-4 cells in NK-SUDHL-4 co-cultures,SUDHL-4 cells; FIG. 6,can effectively kill cancer cells
